Laboratory results as given in publication PMC8597786 (Antimicrobial Agents and Chemotherapy, 2021).
Like-named read-outs stand apart in the source and are kept apart here.

Key:
Experiment in all cases: microbe, parasite or virus in culture
[1] = test system: SARS-CoV-2 (USA-WA1/2020 variant); format: cell-based
[2] = test system: SARS-CoV-2 variant B.1.351; format: cell-based, SARS-CoV-2 B.1.351
[3] = test system: SARS-CoV-2 variant B.1.1.7; format: cell-based, SARS-CoV-2 B.1.1.7
[4] = test system: SARS-CoV-2 variant B.1.1.7; conditions: for EC50: Severe acute respiratory syndrome coronavirus 2, Vero C1008, 168 h, read-out: EC50: viability restoration in infected cells for B.1.1.7
[5] = test system: SARS-CoV-2 (USA-WA1/2020 variant); format: cell-based; conditions: Severe acute respiratory syndrome coronavirus 2, Vero C1008, 96 h; 4 days; read-out: EC50: viability restoration in infected cells for WA1/2020
[6] = test system: SARS-CoV-2 variant B.1.351; format: cell-based, SARS-CoV-2 B.1.351; conditions: for EC50: Severe acute respiratory syndrome coronavirus 2, Vero C1008, 96 h, 4 days, read-out: EC50 for CPE scoring-based assay for B.1.351
[7] = test system: SARS-CoV-2 variant B.1.1.7; format: cell-based, SARS-CoV-2 B.1.1.7; conditions: Severe acute respiratory syndrome coronavirus 2, Vero C1008, 96 h; 4 days; read-out: EC50 for CPE scoring-based assay for B.1.1.7
[8] = test system: SARS-CoV-2 (USA-WA1/2020 variant); format: cell-based; conditions: for EC50: Severe acute respiratory syndrome coronavirus 2, Vero C1008, 48 h, read-out: EC50: yield reduction assay for WA1/2020
[9] = test system: SARS-CoV-2 variant B.1.351; format: cell-based, SARS-CoV-2 B.1.351; conditions: Severe acute respiratory syndrome coronavirus 2, Vero C1008, 168 h, read-out: EC50: viability restoration in infected cells for B.1.351
[10] = Severe acute respiratory syndrome coronavirus 2, Vero C1008, 96 h, 4 days, read-out: EC50 for CPE scoring-based assay for WA1/2020
[11] = Severe acute respiratory syndrome coronavirus 2, Vero C1008, read-out: EC50s, range over cytopathic effect and yield reduction assays

Row | Structure (SMILES) | EC50 [4] | EC50 [5] | EC50 [6] | EC50 [7] | % infected, Average ([8]; 1 μM) | % infected, Average ([8]; 3 μM) | % infected, Average ([8]; 10 μM) | % infected, Average ([8]; 30 μM) | % infected, Average ([8]; 50 μM) | EC50 [8] | EC50 [9] | EC50 [1, 10] | EC50 [1, 11] | also measured
1 | CC(C)C[C@H](NC(=O)OCc1ccccc1)C(=O)N[C@@H](CC1CCNC1=O)C(O)S(=O)(=O)O (stereo partly drawn) [GC-376, reference compound] |  |  |  |  |  |  |  |  |  |  |  |  |  | EC50 ([1]; 4 days, read-out: EC50 for CPE scoring-based assay for WA1/2020): 3.9 µM
2 | Oc1ccc([C@@H]2c3c(O)cc(O)cc3[C@@H]3c4c(cc(O)cc4[C@H]2[C@@H]2c4cc(O)cc5c4[C@@H](c4cc(O)cc(O)c4[C@H]2c2ccc(O)cc2)[C@H](c2ccc(O)cc2)O5)O[C@H]3c2ccc(O)cc2)cc1 [Hopeaphenol, (–)-hopeaphenol] | 7.8 µM | 23.4 µM | 2.3 µM | 14.8 µM | 29.2% | 23.0% | 18.7% | 11.5% | 3.6% | 13.5 µM | 7.5 µM | 10.2 µM | 10.2 to 23.4 µM | % infected, Average ([2]; 3 μM): 20.6%; % infected, Average ([2]; 10 μM): 11.6%; % infected, Average ([2]; 20 μM): 9.9%; % infected, Average ([2]; 50 μM): 0.1%; EC50 ([2]; Severe acute respiratory syndrome coronavirus 2, Vero C1008, 48 h, read-out: EC50: yield reduction assay for B.1.351): 8.8 µM; % infected, Average ([3]; 3 μM): 12.1%; % infected, Average ([3]; 10 μM): 10.4%; % infected, Average ([3]; 20 μM): 6.7%; % infected, Average ([3]; 50 μM): 0.0%; EC50 ([3]; Severe acute respiratory syndrome coronavirus 2, Vero C1008, 48 h, read-out: EC50: yield reduction assay for B.1.1.7): 11.4 µM; Fold improved activity against B.1.351 over USA-WA1/2020 (CPE EC50) [6]: 4.5 fold; EC50 ([1]; Severe acute respiratory syndrome coronavirus 2, read-out: EC50s in infectious viral assays, range): 2.3 to 23.4 µM
3 | CCC(CC)COC(=O)[C@H](C)N[P@](=O)(OC[C@H]1O[C@@](C#N)(c2ccc3c(N)ncnn23)[C@H](O)[C@@H]1O)Oc1ccccc1 [Remdesivir, remdesivir, reference compound] | > 10 µM | 7.3 µM | 1.4 µM | 1.5 µM | 13.5% | 8.5% | 0.0% |  |  | 1 µM | > 10 µM | 2.5 µM | 1 to 7.3 µM | % infected, Average ([8]; 0.3 μM): 21.0%
4 | Oc1ccc(/C=C/c2cc(O)cc(O)c2)cc1 [Resveratrol, resveratrol, reference compound] |  | > 50 µM |  |  |  |  |  |  |  |  |  | > 100 µM |  | 
5 | OC[C@H]1O[C@@H](Oc2cc3c4c(c2)[C@@H]([C@@H]2c5cc(O)cc6c5[C@@H](c5cc(O)cc(O)c5[C@H]2c2ccc(O)cc2)[C@H](c2ccc(O)cc2)O6)[C@H](c2ccc(O)cc2)c2c(O)cc(O)cc2[C@H]4[C@H](c2ccc(O)cc2)O3)[C@H](O)[C@@H](O)[C@@H]1O [Vatalbinoside A, vatalbinoside A] | > 50 µM | 18.8 µM | 3.6 µM | 4 µM | 17.1% | 17.8% | 16.7% | 9.9% | 11.2% | 19.1 µM | 11.3 µM | 13.8 µM |  | viability at 20 µM ([4]; Severe acute respiratory syndrome coronavirus 2, read-out: Restored viability in B.1.1.7-infected cells): ≤ 51.2%
6 | Oc1ccc([C@@H]2c3c(O)cc(O)cc3[C@@H]3c4c(cc(O)c5c4[C@@H]2[C@H](c2ccc(O)cc2)[C@H]5c2cc(O)cc4c2[C@@H](c2cc(O)cc(O)c2)[C@H](c2ccc(O)cc2)O4)O[C@H]3c2ccc(O)cc2)cc1 [Vaticanol B, vaticanol B] | > 50 µM | > 50 µM | 25.3 µM | 32.4 µM |  |  | 30.0% | 26.8% | 16.9% | > 50 µM | > 50 µM | 37 µM |  | 
